Counter-ions that a name gives are not always drawn. Like-named read-outs stand apart in the source and are kept apart here.
Assays:
SW48 cancer cells = test: In vitro combination study with Compound 1, Cell Titer-Glo (ATP) cell viability, 72 h; format: cell-based
Description: (§10) Each combination pair was evaluated in an individual 384-well plate which contained variable doses of both compounds as single agents, as well as two, ten-by-ten matrices (in duplicate) that contained mixtures of the two test compounds. In brief, compounds were added to the cell test plates 16 hours after cell plating and then assessed for viability 72 hours later. Continuous cultures of tumor cells were maintained under standard cell culturing conditions (i.e. in a humidified chamber set at 37° C., containing atmosphere 5% carbon dioxide). […] Seventy-two hours after compound addition, ATP levels were measured to assess cell viability. Plating densities were chosen to ensure optimal linear growth over the 72 hour period.
Compound dilution and compound delivery to the assay plates were done on HighRes Robotic System (HighRes Biosolutions, Woburn, Mass., USA) with Echo™ Liquid Handler (Labcyte, Sunnyvale, Calif., USA). First, 384-well low dead volume (LDV) plates containing DMSO (Appendix B) and 10 mM compound stock solutions were used to create the required intermediate compound dilution plates. Next, these were used for compound transfer into cell assay plates. All wells were back-filled to give a constant percentage of DMSO.
(§11) The final DMSO concentration was held constant in all wells across the plate and was maintained at less than 0.5%. […] Cells treated with vehicle (DMSO) in two rows, or single compound serial dilutions in one plate columns/row served as the untreated control and single compound controls, respectively.
(§12) Compound activity in A549, COLO205, H460, HCT116, SW48, SW620 cancer cell lines was assessed using Cell Titer-Glo® (Promega [Madison, Wis., USA]). After 72 hours incubation, the plates were treated as per package insert protocol for the Promega Luminescence ATP Detection Systems. Briefly, 25 μL of cell lysis/substrate solution (provided in kit form) was added to each well and the plate was incubated at room temperature for 10 minutes. Luminescence was measured using a PHERAstar multi-label counter (BMG Labtech [Ortenberg, Germany]) or LEADseeker (GE Healthcare Life Sciences [Piscataway, N.J., USA]).
(§13) Numerical luminescence values were analyzed to generate EC50 curves and evaluate synergy. Raw Data reader files were uploaded along with automation workfiles that defined the plate and well contents. Percent activities were calculated for each well versus plate controls.
(§14) Each plate representing a single drug combination was analyzed separately. First, the viability measurements were normalized by scaling the data so that the median of the negative controls was 0 and the median of the positive controls was 100.
(§15) For the combination analysis, a response surface model was used to describe the relationship between the normalized viability and the drug concentrations. The data were fit to the model by minimizing the residual sum of squares. Based on the fitted response surface, plots of constant viability, called isobolograms, were produced.
(§16) The Combination Index and Nonlinear Blending were used as measures of drug synergy. To calculate Combination Index the 50% isobologram (which is the dose contour that has 50% viability) was used. […] A standard procedure was created to produce a call in order to characterize the viability effects for each combination (synergy, additivity, subadditivity, or antagonism). If the Combination Index existed then these measures were used to make the call.

[1] = test system: PHTXS-13O human primary ovarian cancer xenografts; test: In vivo combination study, Patient Derived Xenograft; design: species or system mouse; conditions: for Result (combination with Compound 1, tumor growth): PHTXS-13O (170 mm^3) FIG. 4A
Description: (§1) To investigate in vivo antitumor activity of Compound 1 in combination with other agents, tests using Cell Derived Xenograft (CDX), Patient Derived Xenograft (PDX) and Syngeneic mouse tumor isograft model were conducted. Cells or Patient Derived Tumors were inoculated by one method of the following two methods (Method A and B) as shown Table 7.
(§2) Method A; Cells were maintained in either immune deficient nude mice or immune competent mice by subcutaneous inoculation of tumor cells at various concentrations into respected mice. Method B: Patient Derived Tumor s were maintained in nude mice by subcutaneous inoculation of tumor pieces (approx. 2×2×2 mm) into nude mice. Mice with tumor size of approximately 50 mm^3 (e.g., 40-75 mm^3) for syngeneic mouse studies or 200 mm^3 (e.g., 110-270 mm^3) for xenograft studies were randomly assigned to dose groups on the day (Day 0) before start date of dosing.
(§3) Compound 1 (crystalline form I) was suspended in 0.5 w/v % methylcellulose and administered orally to mice. Antibodies which administered in the experiment were described in Table 8.
(§4) Tumor size was measured by caliper and tumor volume was estimated using the equation V=(LW^2)/2, where L and W are tumor length and width, respectively and reported in cubic millimeters.
(§5) These values were compared across treatment groups to assess whether the differences in the trends over time were statistically significant. To compare pairs of treatment groups, the following mixed-effects linear regression model was fit to the data using the maximum likelihood method:
(§6) For synergy analyses, the observed differences in the log tumor values were used to calculate AUC values for each animal. In instances when an animal in a treatment group was removed from the study, the last observed tumor value was carried forward through all subsequent time points. The AUC for the control, or vehicle, group was calculated using the predicted values from the pairwise models described above. We defined a measure of synergy as follows:
(§7) where Ak and Bk are the k^th animal in the individual treatment groups and ABk is the k^th animal in combination treatment group. AUCcd is the model-predicted AUC for the control group and was treated as a constant with no variability. The standard error of the synergy score was calculated as the square root of the sum of squared standard errors across groups A, B, and AB. The degrees of freedom were estimated using the Welch-Satterthwaite equation. A hypothesis test was performed to determine if the synergy score differed from 0. P values were calculated by dividing the synergy score by its standard error and tested against a t-distribution (two-tailed) with the above-calculated degrees of freedom.
(§8) The effect was classified into four different categories. It was considered synergistic if the synergy score was less than 0 and additive if the synergy score wasn't statistically different from 0. If the synergy score was greater than zero, but the mean AUC for the combination was lower than the lowest mean AUC among the two single agent treatments, then the combination was sub-additive. If the synergy score was greater than zero, and the mean AUC for the combination was greater than the mean AUC for at least one of the single agent treatments, then the combination was antagonistic.

HCT116 cancer cells = test: In vitro combination study with Compound 1, Cell Titer-Glo (ATP) cell viability, 72 h; format: cell-based;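 further: combination call from 10×10 dose matrices in duplicate, graded by synergy, with percent activity per well relative to DMSO vehicle controls on the same plate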
Description: as §10
(§17) Compound dilution and compound delivery to the assay plates were done on HighRes Robotic System (HighRes Biosolutions, Woburn, Mass., USA) with Echo™ Liquid Handler (Labcyte, Sunnyvale, Calif., USA). […] Next, these were used for compound transfer into cell assay plates. All wells were back-filled to give a constant percentage of DMSO.
as §11, §12, §13, §14, §15, §16

H460 cancer cells = test: as above; format: cell-based;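 further: Ten-by-ten dose matrices of both drugs alongside single-agent dilutions, luminescence read 72 hours after compound addition, percent activity per well versus vehicle (DMSO) plate controls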
Description: as §10, §17, §11, §12, §13, §14, §15, §16

CALU6 (Lung) = test: In vitro combination study for selected compounds, additional cell lines; format: cell-based; conditions: drug combined with Compound 1
Description: (§9) In vitro anti-proliferative effects of selected compounds were tested in additional cell lines, including ovarian cancer (SKOV3) and pancreatic cancer (MIA-PACA-2) cell lines.

H-1650 (Lung) = test: as above; format: cell-based; conditions: drug combined with Compound 1
Description: as §9

SW620 cancer cells = test: In vitro combination study with Compound 1, Cell Titer-Glo (ATP) cell viability, 72 h; format: cell-based;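 further: Ten-by-ten dose matrices of both drugs in 384-well plates, luminescent ATP read-out, synergy evaluated against single-agent and DMSO vehicle controls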
Description: as §10, §17, §11, §12, §13, §14, §15, §16

[2] = test system: ovarian cancer (SKOV3) cell line; test: In vitro combination study for selected compounds, additional cell lines; format: cell-based; conditions: drug combined with Compound 1
Description: as §9

PHTXM-90Es (Esophagus) = test: In vivo combination study, Patient Derived Xenograft; design: species or system mouse; conditions: PHTXM-90Es (185 mm^3); Compound 1 60 mg/kg once daily Day 1-21; drug 10 mg/kg intraperitoneally Days 1,5,9,13,17,21
Description: as §1, §2, §3, §4, §5, §6, §7, §8

PHTXM-97Pa (Pancreatic) = test: as above; design: species or system mouse; conditions: PHTXM-97Pa (180 mm^3)
Description: as §1, §2, §3, §4, §5, §6, §7, §8

[3] = test system: PHTX-249Pa human primary pancreatic xenografts; test: as above; design: species or system mouse; conditions: PHTX-249Pa (195 mm^3)
Description: as §1, §2, §3, §4, §5, §6, §7, §8

[4] = test system: PHTXM-35Es human primary esophagus cancer xenografts; test: as above; design: species or system mouse; conditions: PHTXM-35Es (240 mm^3); Compound 1 60 mg/kg once daily Day 1-21; drug 10 mg/kg intraperitoneally Days 1,5,9,13,17,21
Description: as §1, §2, §3, §4, §5, §6, §7, §8

[5] = test system: PHTXM-79Es human primary esophagus cancer xenografts; test: as above; design: species or system mouse
Description: as §1, §2, §3, §4, §5, §6, §7, §8

COLO205 cancer cells = test: In vitro combination study with Compound 1, Cell Titer-Glo (ATP) cell viability, 72 h; format: cell-based, human;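 further: Ten-by-ten dose matrices of both agents in duplicate plus single-agent dilutions, luminescent ATP read-out, percent activity per well relative to DMSO vehicle wells, synergy call from these matrices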
Description: as §10, §17, §11, §12, §13, §14, §15, §16

A549 cancer cells = test: as above; format: cell-based;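 further: Ten-by-ten dose matrices of the two agents in duplicate, compounds added 16 h post-plating, activity relative to DMSO vehicle wells, call reflects synergy evaluation from luminescence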
[6] = test system: pancreatic cancer (MIA-PACA-2) cell line; test: In vitro combination study for selected compounds, additional cell lines; format: cell-based; conditions: drug combined with Compound 1
Description: as §9

[7] = DNA damaging agent combined with Compound 1, 72 h
[8] = Compound 1 20 mg/kg once daily Day 1-21, drug 5 mg/kg intraperitoneally Days 1,5,9,13,17,21
[9] = Compound 1 20 mg/kg once daily Day 1-21, drug 10 mg/kg intraperitoneally Days 1,5,9,13,17,21
[10] = Compound 1 40 mg/kg once daily Day 1-21, drug 5 mg/kg intraperitoneally Days 1,5,9,13,17,21
[11] = Compound 1 40 mg/kg once daily Day 1-21, drug 10 mg/kg intraperitoneally Days 1,5,9,13,17,21

| SMILES | Call, anti-proliferative effect of combination with Compound 1, SW48 (SW48 cancer cells; [7]) | Call, anti-proliferative effect of combination with Compound 1, HCT116 (HCT116 cancer cells; [7]) | Call, anti-proliferative effect of combination with Compound 1, H460 (H460 cancer cells; [7]) | In vitro combination effect with Compound 1, Lung CALU6 (CALU6 (Lung)) | In vitro combination effect with Compound 1, Lung H-1650 (H-1650 (Lung)) | Call, anti-proliferative effect of combination with Compound 1, SW620 (SW620 cancer cells; [7]) | In vitro combination effect with Compound 1, Ovary SKOV3 [2] | Call, anti-proliferative effect of combination with Compound 1, COLO205 (COLO205 cancer cells; [7]) | In vitro combination effect with Compound 1, Pancreas MIA-PACA-2 [6] | also measured |
| --- | --- | --- | --- | --- | --- | --- | --- | --- | --- | --- |
| N.N.O=C([O-])C1(C(=O)[O-])CCC1.[Pt+2] [Carboplatin] | Additivity (0.7 to 1.3) | Synergy (0 to 0.7) | Synergy (0 to 0.7) | Additive | Additive | – | – | – | – | Result (combination with Compound 1, tumor growth) ([1]; Compound 1 40 mg/kg once daily Day 1-14, drug 30 mg/kg intraperitoneally Days 1,5,9,13): Additive; Result (combination with Compound 1, tumor growth) ([1]; Compound 1 40 mg/kg once daily Day 1-14, drug 50 mg/kg intraperitoneally Days 1,5,9,13): Additive; Result (combination with Compound 1, tumor growth) ([1]; Compound 1 60 mg/kg once daily Day 1-14, drug 30 mg/kg intraperitoneally Days 1,5,9,13): Additive; Result (combination with Compound 1, tumor growth) ([1]; Compound 1 60 mg/kg once daily Day 1-14, drug 50 mg/kg intraperitoneally Days 1,5,9,13): Additive; antitumor activity ([1]; combined with Compound 1, PHTXS-13O human primary ovarian cancer xenografts, FIG. 4A): strong antitumor activity compared to either single treatment alone |
| N.N.[Cl][Pt][Cl] [Cisplatin] | Additivity (0.7 to 1.3) | Synergy (0 to 0.7) | Synergy (0 to 0.7) | Additive | Additive | Synergy (0 to 0.7) | Additive | – | – | – |
| CCc1c2c(nc3ccc(OC(=O)N4CCC(N5CCCCC5)CC4)cc13)-c1cc3c(c(=O)n1C2)COC(=O)[C@]3(O)CC [Irinotecan (CPT-11), Irinotecan] | – | – | – | – | – | – | – | – | – | Result (combination with Compound 1, tumor growth) (PHTXM-90Es (Esophagus)): Synergistic; Result (combination with Compound 1, tumor growth) (PHTXM-97Pa (Pancreatic); [8]): Additive; Result (combination with Compound 1, tumor growth) (PHTXM-97Pa (Pancreatic); [9]): Additive; Result (combination with Compound 1, tumor growth) (PHTXM-97Pa (Pancreatic); [10]): subadditive; Result (combination with Compound 1, tumor growth) (PHTXM-97Pa (Pancreatic); [11]): subadditive; Result (combination with Compound 1, tumor growth) [3, 8]: Additive; Result (combination with Compound 1, tumor growth) [3, 9]: Additive; Result (combination with Compound 1, tumor growth) [3, 10]: Additive; Result (combination with Compound 1, tumor growth) [3, 11]: Additive; Result (combination with Compound 1, tumor growth) [4]: Additive; Result (combination with Compound 1, tumor growth) ([5]; PHTXM-79Es (160 mm^3) FIG. 5B, Compound 1 60 mg/kg once daily Day 1-21, drug 10 mg/kg intraperitoneally Days 1,5,9,13,17,21): Additive; antitumor activity ([5]; combined with Compound 1, PHTXM-79Es human primary esophagus cancer xenografts, FIG. 5B): strong antitumor activity compared to either single treatment alone |
| O=C1[O][Pt]2([NH][C@@H]3CCCC[C@H]3[NH]2)[O]C1=O [Oxaliplatin] | – | – | – | Additive | Additive | – | Additive | – | – | Call, anti-proliferative effect of combination with Compound 1, SW48 (SW48 cancer cells): Additivity (key: Inconclusive: Any; Additivity: 0.7 to 1.3; Synergy: 0 to 0.7; Subadditivity: 1.3 to 2; Antagonism: >2); Call, anti-proliferative effect of combination with Compound 1, HCT116 (HCT116 cancer cells): Additivity (key: Inconclusive: Any; Additivity: 0.7 to 1.3; Synergy: 0 to 0.7; Subadditivity: 1.3 to 2; Antagonism: >2); Call, anti-proliferative effect of combination with Compound 1, COLO205 (COLO205 cancer cells): Synergy (key: Inconclusive: Any; Additivity: 0.7 to 1.3; Synergy: 0 to 0.7; Subadditivity: 1.3 to 2; Antagonism: >2); Call, anti-proliferative effect of combination with Compound 1, H460 (H460 cancer cells): Additivity (key: Inconclusive: Any; Additivity: 0.7 to 1.3; Synergy: 0 to 0.7; Subadditivity: 1.3 to 2; Antagonism: >2); Call, anti-proliferative effect of combination with Compound 1, SW620 (SW620 cancer cells): Synergy (key: Inconclusive: Any; Additivity: 0.7 to 1.3; Synergy: 0 to 0.7; Subadditivity: 1.3 to 2; Antagonism: >2) |
| CCc1c2c(nc3ccc(O)cc13)-c1cc3c(c(=O)n1C2)COC(=O)[C@]3(O)CC [SN-38] | Additivity (0.7 to 1.3) | Synergy (0 to 0.7) | Synergy (0 to 0.7) | – | Additive | Synergy (0 to 0.7) | Additive | Additivity (0.7 to 1.3) | Additive | Call, anti-proliferative effect of combination with Compound 1, A549 (A549 cancer cells): Synergy (key: Inconclusive: Any; Additivity: 0.7 to 1.3; Synergy: 0 to 0.7; Subadditivity: 1.3 to 2; Antagonism: >2) |
| CC[C@@]1(O)C(=O)OCc2c1cc1n(c2=O)Cc2cc3c(CN(C)C)c(O)ccc3nc2-1 [Topotecan hydrochloride] | Additivity (0.7 to 1.3) | Synergy (0 to 0.7) | Synergy (0 to 0.7) | – | Additive | Synergy (0 to 0.7) | Additive | Synergy (0 to 0.7) | Additive | Call, anti-proliferative effect of combination with Compound 1, A549 (A549 cancer cells; [7]): Synergy (0 to 0.7) |

From patent US20220323443A1, “COMBINATION THERAPY FOR CANCER TREATMENT” (TAKEDA PHARMACEUTICAL COMPANY LIMITED, priority 2019, published 2022)
